# Test results as given in patent publication US10821079B2, “PKC activators and combinations thereof” (Cognitive Research Enterprises, Inc., priority 2011, dated 2020).
# Assays:
# [1] = rats; cited from earlier work
# PKC-ε = PKC-ε mRNA by RT-PCR in primary rat hippocampal neurons; format: cell-based; settings: controls and ASPD-treated cells
# Procedure: RNA was isolated from the cells using Trizol reagent (Invitrogen, USA) following the manufacturer's protocol. Briefly, 5 μg of total RNA was reverse transcribed using oligo (dT) and Superscript III (Invitrogen, USA) at 50° C. for 1 hr. Two μl of the cDNA product was amplified using primers for PKC-ε (Forward Primer—[…], Reverse primer—[…]), and β-tubulin (Forward Primer—[…], Reverse primer—[…]) (Origene, Rockville, Md.) for 25 cycles following standard PCR protocols and 55° C. annealing temperature. The PCR amplicons were analyzed in an E-Gel (Invitrogen, USA). The gel image was documented using a Fuji Image gel scanner (FLA-9000, Fuji Film) and densitometric quantification was performed using the IMAL software (Blanchette Rockefeller Neurosciences Institute, Morgantown, W. Va.). Data were represented as normalized ratio of PKC-ε OD (Optical Density) against β-tubulin OD for three independent experiments.
# Primary neurons were treated with ASPD and/or DCPLA-ME. PKC-ε mRNA was quantified by RT-PCR as described above. RNA prepared from control and treated cultured primary rat hippocampal neurons were isolated and reverse transcribed. Individual cDNA was amplified for PKC-ε and β-actin. PKC-ε expression was normalized to β-actin.
# GSK-3β = test: Phospho GSK-3β (Ser-9) Western Blot in ASPD treated primary neurons; format: cell-based, rat; settings: 50 nM ASPD + 100 nM DCPLA-ME
# Excerpt: Phospho GSK-3β expression was normalized against total GSK-3β expression. […] Data are represented as mean±SEM. (Student's t test *. p<0.05; and **, p<0.005 n=3).
# Since GSK-3β is a key enzyme in the production of hyperphosphorylated tau protein, and phosphorylation of the Ser-9 residue causes GSK-3β inhibition, increasing phosphorylation of GSK-3β at Ser-9 by PKC could also enhance the protective effect of DCPLA-ME.
# [2] = Water maze spatial learning and memory task, visible platform test; format: in vivo, Wistar rats
# Procedure: Water maze spatial learning and memory task (2 training trials/day for 4 days) was used to evaluate effects of oral DCPLA-ME on learning and memory in rats. A visible platform test was conducted after the end of the experiments to evaluate whether the treatment might result in an altered sensorimotor activity and escape motivation.
# Male adult Wistar rats (200-250 g) were housed in a temperature-controlled (20-24° C.) room for a week, allowed free access to food and water, and kept on a 12-h light/dark cycle. Rats were anesthetized with sodium pentobarbital (60 mg/kg i.p) and placed in a stereotactic apparatus (Kopf Instruments, Tujunga, Calif.). The core temperature of rats was monitored and kept constant (38.0±0.5° C.) with warming light and pad. Two stainless steel guide cannulas were placed with the tips positioned at the coordinates (anterior-posterior, 0.5 mm; lateral, 1.5 mm; horizontal, 3.2 mm), under aseptic conditions. At the end of surgery and under appropriate anesthesia, rats received (s.c.) banamine (1 mg/kg) and ketoprofen (5 mg/kg) in lactate/Ringer's solution. A 7-day recovery period was allowed before any further experimentation.
# On the first day of experiments, all rats were randomly assigned to different groups and swam for 2 min in a 1.5-(diameter)×0.6-m (depth) pool (22±1° C.). On the following day, rats were trained in a two-trial per day task for four consecutive days. Each training trial lasted for up to 2 min, during which rats learned to escape from water by finding a hidden platform that was placed at a fixed location and submerged 1 cm below the water surface. The navigation of the rats was tracked by a video camera. The escape latency and the route of rats' swimming across the pool to the platform were recorded. The quadrant test (1 min) was performed after removing the platform, 24 hr after the last training trial.
# DCPLA-ME was administered at either 5.3 or 16.0 mg/kg (intragastric, 8 doses total of 2/week with the first 6 doses before the water maze task and the seventh and eighth doses 0.5 hr after the second trial of the first and third training day).
# rat hippocampal neurons = test: Differentiation of seven day old rat hippocampal neurons; format: cell-based; settings: RA 10 μM, bryostatin 1 0.27 nM, DCPLA-ME 100 nM
# Procedure: FIG. 27: PKC-ε specific activation induces maturation and differentiation in rat primary neurons. Seven day old culture of rat hippocampal neurons were treated with RA (10 μM), 0.27 nM bryostatin 1(Bry), RA+bryostatin 1(RA+Bry), DCPLA-ME (100 nM) or RA+DCPLA-ME for 48 h. FIG. 27A—Confocal micrographs showing rat hippocampal neurons stained for MAP-2 (green), synaptophysin (red), and DAPI (blue). FIG. 27B—Graphical representation of number of dendritic branches per neuron. PKCε activation by RA+bryostatin 1(RA+Bry), DCPLA-ME or RA+DCPLA-ME increase the dendritic branching by 2-fold. FIG. 27C—Mean fluorescence intensity for MAP-2 or synaptophysin calculated from eight random 225 μm2 of confocal images. Data are represented as mean±SE. * represents significance with respect to control (* p<0.05, ** p<0.005 and *** p<0.0005).
# Dendritic branching was increased in the cells treated with RA and a PKC activator, as evidenced by the MAP-2 staining. Similarly, the synaptic vesicle pool increased was also seen by increased synaptophysin.
# The effect of RA+bryostatin 1 on development of primary neurons was also investigated. Seven day old rat hippocampal neurons were treated with RA, bryostatin 1, RA+bryostatin 1, DCPLA-methyl ester (“DCPLA-ME”) or RA+DCPLA-ME for 48 hr. RA+bryostatin produced a greater increase of MAP2 and synaptophysin than RA or bryostatin alone (FIGS. 27A & C).
SMILES,acute LD50 [1] [mg/kg],PKC-ε transcript levels (in words) (PKC-ε),phosphorylation of Ser-9 of GSK-3β (in words) (GSK-3β),"memory retention, target quadrant ratio vs control ([2]; 5.3 mg/kg intragastric)","water maze learning, escape latency vs control ([2]; 5.3 mg/kg intragastric)","water maze learning, escape latency vs control ([2]; 16.0 mg/kg intragastric)","visible platform test, sensorimotor ability and escape motivation ([2]; oral)",increase of dendritic branching (rat hippocampal neurons; 48 h) [fold],Fractal dimension (dendritic branching) (rat hippocampal neurons; 48 hr)
CCC/C=C/C=C/C(=O)O[C@H]1/C(=C/C(=O)OC)C[C@H]2C[C@H]([C@@H](C)O)OC(=O)C[C@H](O)C[C@@H]3C[C@H](OC(C)=O)C(C)(C)C(O)(C[C@@H]4C/C(=C/C(=O)OC)C[C@H](/C=C/C(C)(C)[C@]1(O)O2)O4)O3 [Bryostatin-1],0.068,,,,,,,,
"CCCCCC1CC1CC1CC1CCCCCCCC(=O)OC (stereo not drawn) [DCPLA-ME, methyl 8-(2-((2-pentylcyclopropyl)methyl)cyclopropyl)octanoate]",,increased PKC-ε transcript levels,restored phosphorylation of the Ser-9 residue of GSK-3β to normal levels,but not between the 5.3 mg/kg dose and control groups,did not reach a significant level,improved learning performance,did not affect rats' sensorimotor ability and motivation for an escape,2,1.40±0.03
